{
  "source": "patent US6472417B1",
  "about": "“Synergistic pesticidal composition of pyrethroid and N-phenyl-pyrazole” (priority 1994, dated 2002)",
  "system": "Coptotermes formosanusus Shiraki",
  "assay": "Termite control soil treatment test (Japan Wood Preservation Association Standards No. 13, 1987): bored depth, damage by eating, termite control effect",
  "assay_type": "in vivo",
  "details": "for Bored depth (mm) 14 days later: treated soil layer 1 cm",
  "from_the_text": "In the description of these embodiments, the term “part(s)” means part(s) by weight. The test method of embodiments was in accordance with Japan Wood Preservation Association Standards No. 13, 1987, “Standards for Testing Methods of Termite Controlling Effects and Performance of Termite Controlling Agents for Soil Treatment (I)”.\nA testing apparatus was used in which two glass cylinders (each about 5 cm in diameter and about 12 cm in height) are connected at about 2 cm from the bottom with a glass tube about 1.5 cm in diameter and about 10 cm in length (graduated at 5-mm intervals for 5 cm at the center). The one glass cylinder was filled with about 60 g of non-treated soil adjusted to a moisture content of about 25%, and the other glass cylinder was filled with about 0.29 g of filter paper (5.5 mm in diameter). The glass tube was filled, at a thickness of 1 cm, with test soil prepared by mixing 2.4 g of non-treated sandy soil which had passed through a 20-mesh screen and had been dried at 60° C. until a constant weight had been achieved, with 0.45 g of the solution of the test composition of a predetermined concentration, and the mixture was allowed to stand for 3 weeks in a room without weather resistance treatment. The glass tube was connected to the glass cylinders.\nIn the glass cylinder filled with non-treated soil, 200 workers and 20 soldiers of Coptotermes formosanusus Shiraki were placed, and the testing apparatus was kept at a constant temperature chamber controlled at a temperature of 28° C., and a relative humidity of 70% or higher.\nThe bored depth (millimeters=mm), damage by eating, and the termite control effect were determined 14 days after insects were put in place, and the effect was evaluated in accordance with the following criteria: […]",
  "key": {"[1]": {"details": "Concentration (%) 0.005, single ingredient"}, "[2]": {"details": "Concentration (%) 0.01, single ingredient"}, "[3]": {"details": "Coptotermes, soil, 336 h, read-out: Termite control effect 14 days later"}, "[4]": {"details": "Concentration (%) 0.025, single ingredient"}, "[5]": {"details": "Concentration (%) 0.05, single ingredient"}, "[6]": {"details": "Concentration (%) 0.02, single ingredient"}, "[7]": {"details": "Concentration (%) 0.1, single ingredient"}, "[8]": {"details": "Concentration (%) 0.002, single ingredient"}},
  "note": "Like-named read-outs stand apart in the source and are kept apart here.",
  "data": [
    {"smiles": "Cc1c(COC(=O)[C@@H]2[C@H](/C=C(\\Cl)C(F)(F)F)C2(C)C)cccc1-c1ccccc1", "note": "(racemic) [Bifenthrin, 2-methylbiphenyl-3-yl-methyl (Z)-1RS,3RS)-3-(2-chloro-3,3,3-trifluoroprop-1-enyl)-2-2-dimnethylcyclopropane carboxylate]", "values": [
      {"measurement": "Damage by eating 14 days later", "setting": "[1]", "value": "+++ (51% or more compared with non-treatment)"},
      {"measurement": "Bored depth (mm) 14 days later", "setting": "[1]", "value": ">10", "unit": "mm"},
      {"measurement": "Damage by eating 14 days later", "setting": "[2]", "value": "+++ (51% or more compared with non-treatment)"},
      {"measurement": "Bored depth (mm) 14 days later", "setting": "[2]", "value": ">10", "unit": "mm"},
      {"measurement": "pest or weed control at 0.005 %", "setting": "[3]", "value": "< 49", "unit": "%"},
      {"measurement": "pest or weed control at 0.01 %", "setting": "[3]", "value": "< 49", "unit": "%"}
    ]},
    {"smiles": "CC1(C)[C@H](C(=O)O[C@@H](C#N)c2ccc(F)c(Oc3ccccc3)c2)[C@@H]1C=C(Cl)Cl", "note": "(racemic) [Cyfluthrin, (RS)-a-cyano-4-fluoro-3-phenoxybenzyl (1RS, 3RS)-(1RS, 3RS)-3-(2,2-dichlorovinyl)-2,2-dimethylcyclopropane carboxylate]", "values": [
      {"measurement": "Damage by eating 14 days later", "setting": "[1]", "value": "+++ (51% or more compared with non-treatment)"},
      {"measurement": "Termite control effect 14 days later", "setting": "[1]", "value": "D (49% lethal or less)"},
      {"measurement": "Bored depth (mm) 14 days later", "setting": "[1]", "value": ">10", "unit": "mm"},
      {"measurement": "Damage by eating 14 days later", "setting": "[4]", "value": "None"},
      {"measurement": "Termite control effect 14 days later", "setting": "[4]", "value": "D (49% lethal or less)"},
      {"measurement": "Bored depth (mm) 14 days later", "setting": "[4]", "value": ">10", "unit": "mm"}
    ]},
    {"smiles": "CC1(C)C(C=C(Cl)Cl)C1C(=O)OC(C#N)c1cccc(Oc2ccccc2)c1", "note": "(racemic) [Cypermethrin, (RS)-a-cyano-3-phenoxybenzyl (1RS,3RS)-(1RS,3SR)-3-(2,2-dichlorovinyl)-2,2-dimethylcyclopropane carboxylate]", "values": [
      {"measurement": "Damage by eating 14 days later", "setting": "[1]", "value": "+++ (51% or more compared with non-treatment)"},
      {"measurement": "Bored depth (mm) 14 days later", "setting": "[1]", "value": ">10", "unit": "mm"},
      {"measurement": "Damage by eating 14 days later", "setting": "[4]", "value": "None"},
      {"measurement": "Bored depth (mm) 14 days later", "setting": "[4]", "value": ">10", "unit": "mm"},
      {"measurement": "pest or weed control at 0.005 %", "setting": "[3]", "value": "< 49", "unit": "%"},
      {"measurement": "pest or weed control at 0.025 %", "setting": "[3]", "value": "< 49", "unit": "%"}
    ]},
    {"smiles": "CC(C)C(C(=O)OC(C#N)c1cccc(Oc2ccccc2)c1)c1ccc(Cl)cc1", "note": "(racemic) [Fenvalerate, (RS)-a-cyano-3-phenoxybenzyl (RS)-2-(4-chlorophenyl)-3-methylbutanoate]", "values": [
      {"measurement": "Damage by eating 14 days later", "setting": "[2]", "value": "+++ (51% or more compared with non-treatment)"},
      {"measurement": "Bored depth (mm) 14 days later", "setting": "[2]", "value": ">10", "unit": "mm"},
      {"measurement": "Damage by eating 14 days later", "setting": "[5]", "value": "+ (10% or less compared with non-treatment)"},
      {"measurement": "Bored depth (mm) 14 days later", "setting": "[5]", "value": ">10", "unit": "mm"},
      {"measurement": "pest or weed control at 0.01 %", "setting": "[3]", "value": "< 49", "unit": "%"},
      {"measurement": "pest or weed control at 0.05 %", "setting": "[3]", "value": 100, "unit": "%"}
    ]},
    {"smiles": "CC1(C)C(C=C(Cl)Cl)C1C(=O)OCc1cccc(Oc2ccccc2)c1", "note": "(racemic) [Permethrin, 3-phenoxybenzyl (1RS,3RS)-(1RS,3RS)-(2,2-dichlorovinyl)-2,2-diimethylcyclopropane carboxylate]", "values": [
      {"measurement": "Damage by eating 14 days later", "setting": "[6]", "value": "+++ (51% or more compared with non-treatment)"},
      {"measurement": "Bored depth (mm) 14 days later", "setting": "[6]", "value": ">10", "unit": "mm"},
      {"measurement": "Damage by eating 14 days later", "setting": "[7]", "value": "None"},
      {"measurement": "Bored depth (mm) 14 days later", "setting": "[7]", "value": ">10", "unit": "mm"},
      {"measurement": "pest or weed control at 0.02 %", "setting": "[3]", "value": "< 49", "unit": "%"},
      {"measurement": "pest or weed control at 0.1 %", "setting": "[3]", "value": "< 49", "unit": "%"}
    ]},
    {"smiles": "N#Cc1nn(-c2c(Cl)cc(C(F)(F)F)cc2Cl)c(N)c1[S+]([O-])C(F)(F)F", "note": "(stereo not drawn) [Compound A, 5-amino-3-cyano-1-(2,6-dichloro-4-trifluoromethylphenyl)-4-trifluoromethylsulphinylpyrazole]", "values": [
      {"measurement": "Damage by eating 14 days later", "setting": "[1]", "value": "++ (11-50% or less compared with non-treatment)"},
      {"measurement": "Bored depth (mm) 14 days later", "setting": "[1]", "value": ">10", "unit": "mm"},
      {"measurement": "Damage by eating 14 days later", "setting": "[2]", "value": "+ (10% or less compared with non-treatment)"},
      {"measurement": "Bored depth (mm) 14 days later", "setting": "[2]", "value": ">10", "unit": "mm"},
      {"measurement": "Damage by eating 14 days later", "setting": "[6]", "value": "+ (10% or less compared with non-treatment)"},
      {"measurement": "Bored depth (mm) 14 days later", "setting": "[6]", "value": ">10", "unit": "mm"},
      {"measurement": "pest or weed control at 0.005 %", "setting": "[3]", "value": 100, "unit": "%"},
      {"measurement": "pest or weed control at 0.01 %", "setting": "[3]", "value": 100, "unit": "%"},
      {"measurement": "pest or weed control at 0.02 %", "setting": "[3]", "value": 100, "unit": "%"}
    ]},
    {"smiles": "CCOc1ccc(C(C)(C)COCc2cccc(Oc3ccccc3)c2)cc1", "note": "[Ethofenprox, 2-(4-ethoxyphenyl)-2-methylpropyl-3-phenoxybenzyl ether]", "values": [
      {"measurement": "Damage by eating 14 days later", "setting": "[6]", "value": "+++ (51% or more compared with non-treatment)"},
      {"measurement": "Termite control effect 14 days later", "setting": "[6]", "value": "D (49% lethal or less)"},
      {"measurement": "Bored depth (mm) 14 days later", "setting": "[6]", "value": ">10", "unit": "mm"},
      {"measurement": "Damage by eating 14 days later", "setting": "[7]", "value": "None"},
      {"measurement": "Termite control effect 14 days later", "setting": "[7]", "value": "D (49% lethal or less)"},
      {"measurement": "Bored depth (mm) 14 days later", "setting": "[7]", "value": ">10", "unit": "mm"}
    ]},
    {"smiles": "CC(C)[C@H](Nc1ccc(C(F)(F)F)cc1Cl)C(=O)OC(C#N)c1cccc(Oc2ccccc2)c1", "note": "(stereo partly drawn) [Fluvalinate]", "values": [
      {"measurement": "Damage by eating 14 days later", "setting": "[5]", "value": "+++ (51% or more compared with non-treatment)"},
      {"measurement": "Bored depth (mm) 14 days later", "setting": "[5]", "value": ">10", "unit": "mm"},
      {"measurement": "pest or weed control at 0.05 %", "setting": "[3]", "value": "< 49", "unit": "%"}
    ]},
    {"smiles": "CCOc1ccc([Si](C)(C)CCCc2ccc(F)c(Oc3ccccc3)c2)cc1", "note": "[Silafluofen, 4-ethoxyphenyl-[3-(3-phenoxy-4-fluorophenyl)propyl](dimnethyl)silane]", "values": [
      {"measurement": "Damage by eating 14 days later", "setting": "[2]", "value": "+++ (51% or more compared with non-treatment)"},
      {"measurement": "Bored depth (mm) 14 days later", "setting": "[2]", "value": ">10", "unit": "mm"},
      {"measurement": "Damage by eating 14 days later", "setting": "[5]", "value": "+ (10% or less compared with non-treatment)"},
      {"measurement": "Bored depth (mm) 14 days later", "setting": "[5]", "value": ">10", "unit": "mm"},
      {"measurement": "pest or weed control at 0.01 %", "setting": "[3]", "value": "< 49", "unit": "%"},
      {"measurement": "pest or weed control at 0.05 %", "setting": "[3]", "value": 100, "unit": "%"}
    ]},
    {"smiles": "CC1(C)[C@H](C(=O)O[C@H](C#N)c2cccc(Oc3ccccc3)c2)[C@@H]1C(Br)C(Br)(Br)Br", "note": "(stereo partly drawn) [Tralomethrin, (S)-a-cyano-3-phenoxybenzyl (1R,3S)-2,2-dinethyl-3-(1,2,2,2-tetrabromoethyl)cyclopropane carboxylate]", "values": [
      {"measurement": "Damage by eating 14 days later", "setting": "[8]", "value": "+++ (51% or more compared with non-treatment)"},
      {"measurement": "Bored depth (mm) 14 days later", "setting": "[8]", "value": ">10", "unit": "mm"},
      {"measurement": "Damage by eating 14 days later", "setting": "[2]", "value": "+++ (51% or more compared with non-treatment)"},
      {"measurement": "Bored depth (mm) 14 days later", "setting": "[2]", "value": ">10", "unit": "mm"},
      {"measurement": "pest or weed control at 0.002 %", "setting": "Coptotermes, soil, 336 h, Concentration (%) 0.002, single ingredient, read-out: Termite control effect 14 days later", "value": "< 49", "unit": "%"},
      {"measurement": "pest or weed control at 0.01 %", "setting": "Coptotermes, soil, 336 h, Concentration (%) 0.01, single ingredient, read-out: Termite control effect 14 days later", "value": "< 49", "unit": "%"}
    ]}
  ]
}
